Test results from patent US11312724B2 (ASCENTAGE PHARMA (SUZHOU) CO., LTD., priority 2021, dated 2022).

Tests used:
MIA PaCa-2 cell = assay: Cell proliferation assay (Celltiter-Glo), MIA PaCa-2; type: cell-based; conditions: Homo sapiens, MIA PaCa-2, 72 h, 3 days
Procedure: (§1) Cell Proliferation Assay:
(§2) NCI-H358 cell and MIA PaCa-2 cell was cultured in RPMI-1640 supplemented with 10% FBS in humidified incubator at 37° C., 5% CO2. To asses the effect of Compounds of the Disclosure on cell proliferation, exponentially growing cells (5000 cells/well) were plated onto 96-well plates. After cell seeding, a representative Compounds of the Disclosure were added to the cell media (in concentrations ranging from 0 to 10 μM, 3/dilution series). After 3 days, 30 μL Celltiter-Glo reagent was added, and the luminescent signal was determined according to supplier's instruction. The dose response curves and IC50 values were generated using Prism.

NCI-H358 cell = assay: Cell proliferation assay (Celltiter-Glo), NCI-H358; type: cell-based; conditions: Homo sapiens, NCI-H358, 72 h, 3 days
Procedure: as §1, §2

Structure (SMILES) | IC50 (MIA PaCa-2 cell) | IC50 (NCI-H358 cell)
C=CC(=O)N1CCN(c2nc(OC[C@@H]3CCCN3C)nc3c2CCC2(C3)CS(=O)(=O)Cc3ccccc32)C[C@@H]1CC#N (stereo partly drawn) [Cpd. No. 31, 2-((2S)-1-acryloyl-4-(2′-(((S)-1-methylpyrrolidin-2-yl)methoxy)-2,2-dioxido-5′,8′-dihydro-6′H-spiro[isothiochromane-4,7′-quinazolin]-4′-yl)piperazin-2-yl)acetonitrile] | > 10000 nM | > 10000 nM
C=C(F)C(=O)N1CCN(c2nc(OCC34CCCN3CCC4)nc3c2CCC2(CCc4c(C(F)F)cccc42)C3)C[C@@H]1CC#N (stereo partly drawn) [Cpd. No. 49, 2-((2S)-4-(4-(difluoromethyl)-2′-((tetrahydro-1H-pyrrolizin-7a(5H)-yl)methoxy)-2,3,5′,8′-tetrahydro-6′H-spiro[indene-1,7′-quinazolin]-4′-yl)-1-(2-fluoroacryloyl)piperazin-2-yl)acetonitrile] | 60 nM | 61 nM
C=CC(=O)N1CCN(c2nc(OC[C@@H]3CCCN3C)nc3c2CCC2(COC(C)c4ccccc42)C3)C[C@@H]1CC#N (stereo partly drawn) [Cpd. No. 32, 2-((2S)-1-acryloyl-4-(1-methyl-2′-(((S)-1-methylpyrrolidin-2-yl)methoxy)-5′,8′-dihydro-6′H-spiro[isochromane-4,7′-quinazolin]-4′-yl)piperazin-2-yl)acetonitrile] | 22 nM | 83 nM
C=CC(=O)N1CCN(c2nc(OC[C@@H]3CCCN3C)nc3c2CCC2(CCOc4c(Cl)cc(Cl)cc42)C3)C[C@@H]1CC#N (stereo partly drawn) [Cpd. No. 23, 2-((2S)-1-acryloyl-4-(6,8-dichloro-2′-(((S)-1-methylpyrrolidin-2-yl)methoxy)-5′,8′-dihydro-6′H-spiro[chromane-4,7′-quinazolin]-4′-yl)piperazin-2-yl)acetonitrile] | 740 nM | 1240 nM
C=CC(=O)N1CCN(c2nc(OC[C@@H]3CCCN3C)nc3c2CCC2(COC(C(F)(F)F)c4ccccc42)C3)C[C@@H]1CC#N (stereo partly drawn) [Cpd. No. 33, 2-((2S)-1-acryloyl-4-(2′-(((S)-1-methylpyrrolidin-2-yl)methoxy)-1-(trifluoromethyl)-5′,8′-dihydro-6′H-spiro[isochromane-4,7′-quinazolin]-4′-yl)piperazin-2-yl)acetonitrile] | 30 nM | 45 nM
C=CC(=O)N1CCN(c2nc(OC[C@@H]3CCCN3C)nc3c2CCC2(CCCc4ccc(F)cc42)C3)C[C@@H]1CC#N (stereo partly drawn) [Cpd. No. 11, 2-((2S)-1-acryloyl-4-(7-fluoro-2′-(((S)-1-methylpyrrolidin-2-yl)methoxy)-3,4,5′,8′-tetrahydro-2H,6′H-spiro[naphthalene-1,7′-quinazolin]-4′-yl)piperazin-2-yl)acetonitrile] | 110 nM | 200 nM
C=C(F)C(=O)N1CCN(c2nc(OCC34CCCN3CC(F)(F)C4)nc3c2CC[C@@]2(CCc4c(Cl)cccc42)C3)C[C@@H]1CC#N (stereo partly drawn) [Cpd. No. 51, 2-((2S)-4-((1R)-4-chloro-2′-((2,2-difluorotetrahydro-1H-pyrrolizin-7a(5H)-yl)methoxy)-2,3,5′,8′-tetrahydro-6′H-spiro[indene-1,7′-quinazolin]-4′-yl)-1-(2-fluoroacryloyl)piperazin-2-yl)acetonitrile] | 110 nM | 52 nM
C=CC(=O)N1CCN(c2nc(OC[C@@H]3[C@H]4C[C@H]4CN3C)nc3c2CC[C@@]2(CCc4c(Cl)cccc42)C3)C[C@@H]1CC#N (single isomer, unassigned) [Cpd. No. 48] | 4.3 nM | 6 nM
C=CC(=O)N1CCN(c2nc(OC[C@@H]3CCCN3C)nc3c2CCC2(C3)CC3(CC3)c3c(F)cccc32)C[C@@H]1CC#N (stereo partly drawn) [Cpd. No. 38, 2-((2S)-1-acryloyl-4-(4′-fluoro-2″-(((S)-1-methylpyrrolidin-2-yl)methoxy)-5″,8″-dihydro-2′H,6″H-dispiro[cyclopropane-1,3′-indene-1′,7″-quinazolin]-4″-yl)piperazin-2-yl)acetonitrile] | 93 nM | 290 nM
C=CC(=O)N1CCN(c2nc(OC[C@@H]3CCCN3C)nc3c2CCC2(COCc4c(F)cccc42)C3)C[C@@H]1CC#N (stereo partly drawn) [compound 26] | 1.8 nM | 2.2 nM
C=CC(=O)N1C2CCC1CN(c1nc(OC[C@@H]3CCCN3C)nc3c1CCC1(COCc4cccc(F)c41)C3)C2 (stereo partly drawn) [Cpd. No. 29, 1-(3-(5-fluoro-2′-(((S)-1-methylpyrrolidin-2-yl)methoxy)-5′,8′-dihydro-6′H-spiro[isochromane-4,7′-quinazolin]-4′-yl)-3,8-diazabicyclo[3.2.1]octan-8-yl)prop-2-en-1-one] | > 10000 nM | 8100 nM
C=CC(=O)N1CCN(c2nc(OC[C@@H]3CCCCN3C)nc3c2CCC2(CCCc4ccccc42)C3)C[C@@H]1CC#N (stereo partly drawn) [Cpd. No. 18, 2-((2S)-1-acryloyl-4-(2′-(((S)-1-methylpiperidin-2-yl)methoxy)-3,4,5′,8′-tetrahydro-2H,6′H-spiro[naphthalene-1,7′-quinazolin]-4′-yl)piperazin-2-yl)acetonitrile] | 110 nM | 160 nM
C=CS(=O)(=O)N1CCN(c2nc(OC[C@@H]3CCCN3C)nc3c2CCC2(CCCc4ccccc42)C3)C[C@@H]1CC#N (stereo partly drawn) [Cpd. No. 16, 2-((2S)-4-(2′-(((S)-1-methylpyrrolidin-2-yl)methoxy)-3,4,5′,8′-tetrahydro-2H,6′H-spiro[naphthalene-1,7′-quinazolin]-4′-yl)-1-(vinylsulfonyl)piperazin-2-yl)acetonitrile] | 2960 nM | 1900 nM
C=CC(=O)N1CCN(c2nc(OCC3CCCN3C)nc3c2CC[C@@]2(CCc4ccccc42)C3)C[C@@H]1CC#N (single isomer, unassigned) [Cpd. No. 5] | 400 nM | 520 nM
C=CC(=O)N1CCN(c2nc(OC[C@@H]3CCCN3C)nc3c2CCC2(COC(C)(C)c4ccccc42)C3)C[C@@H]1CC#N (stereo partly drawn) [Cpd. No. 34, 2-((2S)-1-acryloyl-4-(1,1-dimethyl-2′-(((S)-1-methylpyrrolidin-2-yl)methoxy)-5′,8′-dihydro-6′H-spiro[isochromane-4,7′-quinazolin]-4′-yl)piperazin-2-yl)acetonitrile] | 750 nM | 1350 nM
C=CC(=O)N1CCN(c2nc(OC[C@@H]3CCCN3C)nc3c2CCC2(C3)CN(C)C(=O)c3ccccc32)C[C@@H]1CC#N (stereo partly drawn) [Cpd. No. 37, 2-((2S)-1-acryloyl-4-(2-methyl-2′-(((S)-1-methylpyrrolidin-2-yl)methoxy)-1-oxo-2,3,5′,8′-tetrahydro-1H,6′H-spiro[isoquinoline-4,7′-quinazolin]-4′-yl)piperazin-2-yl)acetonitrile] | > 10000 nM | > 10000 nM
C=CC(=O)N1CCN(c2nc(OC[C@@H]3CCCN3C)nc3c2CCC2(CCOc4c(Cl)cccc42)C3)C[C@@H]1CC#N (stereo partly drawn) [Cpd. No. 22, 2-((2S)-1-acryloyl-4-(8-chloro-2′-(((S)-1-methylpyrrolidin-2-yl)methoxy)-5′,8′-dihydro-6′H-spiro[chromane-4,7′-quinazolin]-4′-yl)piperazin-2-yl)acetonitrile] | 490 nM | 940 nM
C=C(F)C(=O)N1CCN(c2nc(OC[C@@H]3CCCN3C)nc3c2CCC2(COCc4cccc(F)c42)C3)C[C@@H]1CC#N (stereo partly drawn) | 810 nM | 660 nM
C=C(F)C(=O)N1CCN(c2nc(OC[C@@]34CCCN3C[C@H](F)C4)nc3c2CC[C@@]2(CCc4c(Cl)cccc42)C3)C[C@@H]1CC#N [Cpd. No. 50, 2-((S)-4-((R)-4-chloro-2′-(((2R,7aS)-2-fluorotetrahydro-1H-pyrrolizin-7a(5H)-yl)methoxy)-2,3,5′,8′-tetrahydro-6′H-spiro[indene-1,7′-quinazolin]-4′-yl)-1-(2-fluoroacryloyl)piperazin-2-yl)acetonitrile] | 2.9 nM | 1.2 nM
C=CC(=O)N1CCN(c2nc(OC[C@@H]3CCCN3C)nc3c2CCC2(CCc4ccccc42)C3)CC1 (stereo partly drawn) [Cpd. No. 9, 1-(4-(2′-(((S)-1-methylpyrrolidin-2-yl)methoxy)-2,3,5′,8′-tetrahydro-6′H-spiro[indene-1,7′-quinazolin]-4′-yl)piperazin-1-yl)prop-2-en-1-one] | 1730 nM | 3270 nM
C=CC(=O)N1CCN(c2nc(OC[C@@H]3CCCN3C)nc3c2CC[C@]2(CCCc4ccccc42)C3)C[C@@H]1CC#N (single isomer, unassigned) [Cpd. No. 1] | 3.6 nM | 16 nM
CN1CCC[C@H]1COc1nc2c(c(N3CCN(C(=O)/C=C/CF)[C@@H](CC#N)C3)n1)CCC1(CCc3ccccc31)C2 (stereo partly drawn) [Cpd. No. 43, 2-((2S)-1-((E)-4-fluorobut-2-enoyl)-4-(2′-(((S)-1-methylpyrrolidin-2-yl)methoxy)-2,3,5′,8′-tetrahydro-6′H-spiro[indene-1,7′-quinazolin]-4′-yl)piperazin-2-yl)acetonitrile] | 130 nM | 120 nM
C=CC(=O)N1CCN(c2nc(OC[C@@H]3CCCN3C)nc3c2CCC2(CCc4ccc(C)cc42)C3)C[C@@H]1CC#N (stereo partly drawn) [Cpd. No. 12, 2-((2S)-1-acryloyl-4-(6-methyl-2′-(((S)-1-methylpyrrolidin-2-yl)methoxy)-2,3,5′,8′-tetrahydro-6′H-spiro[indene-1,7′-quinazolin]-4′-yl)piperazin-2-yl)acetonitrile] | 55 nM | 65 nM
C=CC(=O)N1CCN(c2nc(OC[C@@H]3[C@@H]4C[C@@H]4CN3C)nc3c2CC[C@@]2(CCc4c(Cl)cccc42)C3)C[C@@H]1CC#N (single isomer, unassigned) [Cpd. No. 47] | 4.9 nM | 15 nM
